In patent US10517889B2, “Modulators of SMAD7 expression” (Ionis Pharmaceuticals, Inc., priority 2017, dated 2019):
Strand notation (5' to 3'): a small letter for the sugar, then the base; units joined by * are phosphorothioate-linked, units joined directly phosphodiester-linked; [ ] holds rarer units or linkages, { } end groups; capitals alone tell only the bases. k = constrained ethyl (cEt); [5mC] = 5-methylcytosine; d = 2'-deoxy (DNA)

Tested on: human SMAD7 mRNA
Assay: Antisense inhibition of human SMAD7 mRNA expression in Hep3B cells by 3-10-3 cEt gapmers, 10,000 nM, electroporation (Example 2)
Type: cell-based
Conditions: approximately 24 hours
Procedure, shortened: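 SMAD7 mRNA was measured by real-time PCR (RTS5062) with RiboGreen total-RNA normalization, about 24 h after 10,000 nM gapmer was delivered by electroporation into Hep3B cells at 20,000 per well. Gapmers were 16-mer 3-10-3 cEt, fully phosphorothioate; values are % inhibition versus untreated controls.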

[1] = Hep3B cells, electroporation with 10,000 nM antisense oligonucleotide, primer probe set RTS5062, relative to untreated control cells
[2] = SMAD7 mRNA, Hep3B cells, electroporation with 10,000 nM antisense oligonucleotide, primer probe set RTS5062, relative to untreated control cells
[3] = Hep3B cells, 10,000 nM antisense oligonucleotide, electroporation, RT-PCR primer probe set RTS5062, relative to untreated control cells
[4] = Hep3B cells, electroporation with 10,000 nM antisense oligonucleotide, SMAD7 mRNA by RT-PCR (RTS5062), relative to untreated control cells
[5] = Hep3B cells, electroporation, 10,000 nM antisense oligonucleotide, RTS5062, relative to untreated control cells

Substance: 798689 (antisense kG*k[5mC]*k[5mC]*dG*dG*dA*d[5mC]*dG*dA*dG*d[5mC]*dG*d[5mC]*kA*kG*kA) [compound 798689]
- % inhibition of SMAD7 mRNA expression [1]: 33%

Substance: 829971 (kG*k[5mC]*k[5mC]*dA*d[5mC]*dA*d[5mC]*dA*d[5mC]*d[5mC]*dT*d[5mC]*dA*kA*k[5mC]*kG; antisense) [compound 829971]
- % Inhibition [2]: 20%

Substance: 799997 (kA*kT*kG*dA*d[5mC]*d[5mC]*d[5mC]*dA*d[5mC]*dG*dG*dT*dT*kA*kA*kA; antisense) [compound 799997]
- % Inhibition [3]: 14%

Substance: 799863 (kG*kG*k[5mC]*dT*d[5mC]*d[5mC]*d[5mC]*d[5mC]*d[5mC]*dA*d[5mC]*d[5mC]*dG*k[5mC]*kA*kT; antisense) [compound 799863]
- % Inhibition [4]: 16%

Substance: 799017 (kT*kG*k[5mC]*dA*dA*dA*d[5mC]*d[5mC]*dT*d[5mC]*dT*d[5mC]*dT*kG*k[5mC]*kT; antisense) [compound 799017]
- % Inhibition [1]: 0%

Substance: 799011 (k[5mC]*kA*kA*dA*dA*d[5mC]*dA*dA*dA*dG*dA*dG*d[5mC]*kA*k[5mC]*kG; antisense) [compound 799011]
- % inhibition of SMAD7 mRNA expression [1]: 35%

Substance: 799536 (kA*k[5mC]*k[5mC]*dG*dA*dT*dG*d[5mC]*dA*dT*d[5mC]*d[5mC]*dA*kA*k[5mC]*kT; antisense) [compound 799536]
- % inhibition of SMAD7 mRNA expression [5]: 50%

Substance: 830206 (kT*kG*kA*d[5mC]*dT*d[5mC]*dA*dT*d[5mC]*dA*dG*dG*d[5mC]*kA*kT*kT; antisense) [compound 830206]
- % Inhibition [4]: 51%

Substance: 798966 (antisense kT*kA*k[5mC]*d[5mC]*dT*dG*d[5mC]*d[5mC]*d[5mC]*d[5mC]*dT*dT*d[5mC]*kT*kT*k[5mC]) [compound 798966]
- % inhibition of SMAD7 mRNA expression [1]: 35%

Substance: 800007 (k[5mC]*kT*k[5mC]*dA*dA*dG*dG*d[5mC]*d[5mC]*dA*d[5mC]*dA*dT*kT*kT*kT; antisense) [compound 800007]
- % Inhibition [4]: 23%

Substance: 799360 (k[5mC]*k[5mC]*kA*dA*dG*dA*d[5mC]*dA*d[5mC]*dT*dT*d[5mC]*dT*k[5mC]*kT*k[5mC]; antisense) [compound 799360]
- % inhibition of SMAD7 mRNA expression [1]: 42%

Substance: 799148 (antisense kT*kG*kG*dT*dA*d[5mC]*d[5mC]*dT*dT*dG*dG*dG*dT*kT*kA*kT) [compound 799148]
- % inhibition of SMAD7 mRNA expression [1]: 29%

Substance: 800052 (antisense k[5mC]*k[5mC]*k[5mC]*dT*d[5mC]*dT*dT*d[5mC]*d[5mC]*dG*dG*dG*dA*kG*kG*k[5mC]) [compound 800052]
- % Inhibition [3]: 0%

Substance: 829841 (kT*kG*kG*dA*d[5mC]*dA*d[5mC]*dA*dG*dT*dA*dG*dA*kG*k[5mC]*k[5mC]; antisense) [compound 829841]
- % Inhibition [2]: 50%

Substance: 800073 (antisense kT*kA*kA*dG*dT*dA*dG*dG*dA*dG*d[5mC]*d[5mC]*dA*kG*k[5mC]*kG) [compound 800073]
- % Inhibition [3]: 39%

Substance: 799373 (antisense kA*kA*k[5mC]*d[5mC]*dG*dT*d[5mC]*dT*dT*d[5mC]*d[5mC]*d[5mC]*dA*kT*k[5mC]*kT) [compound 799373]
- % Inhibition [4]: 56%

Substance: 799798 (kT*k[5mC]*k[5mC]*d[5mC]*dA*d[5mC]*dT*dT*d[5mC]*dT*d[5mC]*d[5mC]*dT*k[5mC]*kT*kG; antisense) [compound 799798]
- % inhibition of SMAD7 mRNA expression [5]: 50%
